Experimental data taken from PubChem BioAssay AID2060892 (Molecular Pharmacology Branch, DTP, NCI, 2025).
“And” between values parts separate entries of the source, which are not always exact repeats. Equal values may be shown once.

Test system: HOP-62 complex spheroids with HUVEC/MSC, viability
Experiment: Anticancer human tumor HOP-62 cell line growth inhibition [RAS];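 note: spheroids exposed to agents for seven days before readout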;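 for viability, T/C: 100% = DMSO vehicle control viability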
Conditions: for viability, T/C: stronger effect = lower value
How it was run: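 Tumour cells grown as complex spheroids with HUVEC endothelial cells and mesenchymal stem cells, treated with RAS pathway inhibitor combinations. Each agent spans half-log steps from near clinical Cmax, or 10 microM where Cmax is unknown.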

[1] = curve of first compound, second compound 0.000949 µM
[2] = curve of first compound, second compound 0.003 µM
[3] = curve of first compound, second compound 0.00949 µM
[4] = curve of first compound, second compound 0.03 µM
[5] = curve of first compound, second compound 0.0949 µM
[6] = curve of first compound, second compound 0.3 µM
[7] = second compound 0.000949 µM, first compound 0.0316 µM
[8] = second compound 0.000949 µM, first compound 0.1 µM
[9] = second compound 0.000949 µM, first compound 0.316 µM
[10] = second compound 0.000949 µM, first compound 1 µM
[11] = second compound 0.003 µM, first compound 0.0316 µM
[12] = second compound 0.003 µM, first compound 0.1 µM
[13] = second compound 0.003 µM, first compound 0.316 µM
[14] = second compound 0.003 µM, first compound 1 µM
[15] = second compound 0.00949 µM, first compound 0.0316 µM
[16] = second compound 0.00949 µM, first compound 0.1 µM
[17] = second compound 0.00949 µM, first compound 0.316 µM
[18] = second compound 0.00949 µM, first compound 1 µM
[19] = second compound 0.03 µM, first compound 0.0316 µM
[20] = second compound 0.03 µM, first compound 0.1 µM
[21] = second compound 0.03 µM, first compound 0.316 µM
[22] = second compound 0.03 µM, first compound 1 µM
[23] = second compound 0.0949 µM, first compound 0.0316 µM
[24] = second compound 0.0949 µM, first compound 0.1 µM
[25] = second compound 0.0949 µM, first compound 0.316 µM
[26] = second compound 0.0949 µM, first compound 1 µM
[27] = second compound 0.3 µM, first compound 0.0316 µM
[28] = second compound 0.3 µM, first compound 0.1 µM
[29] = second compound 0.3 µM, first compound 0.316 µM
[30] = second compound 0.3 µM, first compound 1 µM

`Nc1ccn(C2OC(CO)C(O)C2(F)F)c(=O)n1` (configuration not stated) + C#Cc1c(F)ccc2cc(O)cc(-c3ncc4c(N5CC6CCC(C5)N6)nc(OCC56CCCN5CC(F)C6)nc4c3F)c12 showed an IC50 (curve of first compound, second compound 0.0316 µM) of 6.38 nM, an IC50 (curve of first compound, second compound 0.1 µM) of 5.77 nM and an IC50 (curve of first compound, second compound 0.316 µM) of 5.94 nM. The IC50 (curve of first compound, second compound 1 µM) was 5.32 nM, the IC50 (curve of first compound, second compound 3.16 µM) was 4.58 nM and the IC50 (curve of first compound, second compound 10 µM) was less than 3.16 nM. The viability, T/C (second compound 0.0316 µM, first compound 0.00316 µM) was 107%, the viability, T/C (second compound 0.0316 µM, first compound 0.01 µM) was 13.4% and the viability, T/C (second compound 0.0316 µM, first compound 0.0316 µM) was 5.94%. For the same compound, the viability, T/C (second compound 0.0316 µM, first compound 0.1 µM) was 5.61%, the viability, T/C (second compound 0.0316 µM, first compound 0.316 µM) was 4.99% and the viability, T/C (second compound 0.0316 µM, first compound 1 µM) was 6.52%. The viability, T/C (second compound 0.1 µM, first compound 0.00316 µM) was 92.4%, the viability, T/C (second compound 0.1 µM, first compound 0.01 µM) was 11.2% and the viability, T/C (second compound 0.1 µM, first compound 0.0316 µM) was 8.15%. The viability, T/C (second compound 0.1 µM, first compound 0.1 µM) was 4.9%, the viability, T/C (second compound 0.1 µM, first compound 0.316 µM) was 5.5% and the viability, T/C (second compound 0.1 µM, first compound 1 µM) was 6.42%. For the same compound, the viability, T/C (second compound 0.316 µM, first compound 0.00316 µM) was 97.4%, the viability, T/C (second compound 0.316 µM, first compound 0.01 µM) was 10.9% and the viability, T/C (second compound 0.316 µM, first compound 0.0316 µM) was 4.88%. It also gave a viability, T/C (second compound 0.316 µM, first compound 0.1 µM) of 4.68%, a viability, T/C (second compound 0.316 µM, first compound 0.316 µM) of 4.42% and a viability, T/C (second compound 0.316 µM, first compound 1 µM) of 4.04%. It also gave a viability, T/C (second compound 1 µM, first compound 0.00316 µM) of 83.7%, a viability, T/C (second compound 1 µM, first compound 0.01 µM) of 9.09% and a viability, T/C (second compound 1 µM, first compound 0.0316 µM) of 4.77%. The viability, T/C (second compound 1 µM, first compound 0.1 µM) was 4.48%, the viability, T/C (second compound 1 µM, first compound 0.316 µM) was 3.43% and the viability, T/C (second compound 1 µM, first compound 1 µM) was 3.47%. It also gave a viability, T/C (second compound 3.16 µM, first compound 0.00316 µM) of 67.8%, a viability, T/C (second compound 3.16 µM, first compound 0.01 µM) of 12.5% and a viability, T/C (second compound 3.16 µM, first compound 0.0316 µM) of 5.06%. It also gave a viability, T/C (second compound 3.16 µM, first compound 0.1 µM) of 4.31%, a viability, T/C (second compound 3.16 µM, first compound 0.316 µM) of 5.01% and a viability, T/C (second compound 3.16 µM, first compound 1 µM) of 4.23%. The viability, T/C (second compound 10 µM, first compound 0.00316 µM) was 39.5%, the viability, T/C (second compound 10 µM, first compound 0.01 µM) was 12.1% and the viability, T/C (second compound 10 µM, first compound 0.0316 µM) was 8.09%. The viability, T/C (second compound 10 µM, first compound 0.1 µM) was 6.92%, the viability, T/C (second compound 10 µM, first compound 0.316 µM) was 8.08% and the viability, T/C (second compound 10 µM, first compound 1 µM) was 6.83%.

`Nc1ccn(C2OC(CO)C(O)C2(F)F)c(=O)n1` (configuration not stated) + CCn1c(-c2cccnc2C(C)OC)c2c3cc(ccc31)N1CCOC(CC(NC(=O)C(C(C)C)N(C)C(=O)C3(F)CCN(C(=O)C#CC(C)(C)N(C)C)CC3)C(=O)N3CCCC(N3)C(=O)OCC(C)(C)C2)C1 was tested, and the IC50 [1] was 14 nM, the IC50 [2] was 9.19 nM and the IC50 [3] was 8.18 nM. The IC50 [4] was 10.6 nM, the IC50 [5] was 9.58 nM and the IC50 [6] was 8.77 nM. It also gave a viability, T/C (second compound 0.000949 µM, first compound 0.00316 µM) of 111%, a viability, T/C (second compound 0.000949 µM, first compound 0.01 µM) of 66.9% and a viability, T/C [7] of 9.65%. It also gave a viability, T/C [8] of 7.4%, a viability, T/C [9] of 7.76% and a viability, T/C [10] of 5.24%. For the same compound, the viability, T/C (second compound 0.003 µM, first compound 0.00316 µM) was 104%, the viability, T/C (second compound 0.003 µM, first compound 0.01 µM) was 45.6% and the viability, T/C [11] was 18.4%. It also gave a viability, T/C [12] of 7.14%, a viability, T/C [13] of 8.39% and a viability, T/C [14] of 5.94%. The viability, T/C (second compound 0.00949 µM, first compound 0.00316 µM) was 87.8%, the viability, T/C (second compound 0.00949 µM, first compound 0.01 µM) was 41% and the viability, T/C [15] was 22.8%. It also gave a viability, T/C [16] of 10.3%, a viability, T/C [17] of 10.9% and a viability, T/C [18] of 5.88%. It also gave a viability, T/C (second compound 0.03 µM, first compound 0.00316 µM) of 90%, a viability, T/C (second compound 0.03 µM, first compound 0.01 µM) of 51.2% and a viability, T/C [19] of 22.7%. The viability, T/C [20] was 8.44%, the viability, T/C [21] was 4.99% and the viability, T/C [22] was 7.65%. It also gave a viability, T/C (second compound 0.0949 µM, first compound 0.00316 µM) of 83.9%, a viability, T/C (second compound 0.0949 µM, first compound 0.01 µM) of 48.5% and a viability, T/C [23] of 21.7%. For the same compound, the viability, T/C [24] was 8.95%, the viability, T/C [25] was 5.53% and the viability, T/C [26] was 6.69%. The viability, T/C (second compound 0.3 µM, first compound 0.00316 µM) was 77.8%, the viability, T/C (second compound 0.3 µM, first compound 0.01 µM) was 45.9% and the viability, T/C [27] was 22.9%. It also gave a viability, T/C [28] of 8.24%, a viability, T/C [29] of 8.97% and a viability, T/C [30] of 8.38%.

For `C=CC(=O)Nc1cc(Nc2nccc(-c3cn(C)c4ccccc34)n2)c(OC)cc1N(C)CCN(C)C`, the viability, T/C (compound 0.00316 µM) was 103% [middle of 4 runs], the viability, T/C (compound 0.01 µM) was 101% [middle of 4 runs] and the viability, T/C (compound 0.0316 µM) was 108% [middle of 4 runs]. For the same compound, the viability, T/C (compound 0.1 µM) was 110% [middle of 4 runs], the viability, T/C (compound 0.316 µM) was 110% [middle of 4 runs] and the viability, T/C (compound 1 µM) was 103% [middle of 4 runs]. It also gave an IC50 (curve of compound) greater than 1000 nM.

`C[C@@H](NC(=O)c1ncnc(N)c1Cl)c1ncc(C(=O)Nc2cc(C(F)(F)F)c(Cl)cn2)s1` was tested, and the viability, T/C (compound 0.0316 µM) was 102% (2×) and 107% and 101%, the viability, T/C (compound 0.1 µM) was 98.6% [middle of 4 runs] and the viability, T/C (compound 0.316 µM) was 105% and 98.1% and 104% (2×). The viability, T/C (compound 1 µM) was 104% [middle of 4 runs], the viability, T/C (compound 3.16 µM) was 96% [middle of 4 runs] and the IC50 (curve of compound) was greater than 10000 nM.

`CC1(O)CCCC1n1c(=O)c(C(F)F)cc2cnc(NC3CCN(S(C)(=O)=O)CC3)nc21` (configuration not stated) + CCn1c(-c2cc(N3CCN(C)CC3)cnc2C(C)OC)c2c3cc(ccc31)-c1csc(n1)CC(NC(=O)C1CC1C)C(=O)N1CCCC(N1)C(=O)OCC(C)(C)C2 showed an IC50 [1] of 5050 nM, an IC50 [2] of 3770 nM and an IC50 [3] of 1060 nM. The IC50 [4] was less than 31.6 nM, the IC50 [5] was less than 31.6 nM and the IC50 [6] was less than 31.6 nM. It also gave a viability, T/C [7] of 104%, a viability, T/C [8] of 87.2% and a viability, T/C [9] of 57.5%. The viability, T/C [10] was 80.3%, the viability, T/C (second compound 0.000949 µM, first compound 3.16 µM) was 83.6% and the viability, T/C (second compound 0.000949 µM, first compound 10 µM) was 2.49%. The viability, T/C [11] was 87.4%, the viability, T/C [12] was 65.2% and the viability, T/C [13] was 58.9%. The viability, T/C [14] was 62.3%, the viability, T/C (second compound 0.003 µM, first compound 3.16 µM) was 61.1% and the viability, T/C (second compound 0.003 µM, first compound 10 µM) was 2.49%. It also gave a viability, T/C [15] of 69.7%, a viability, T/C [16] of 53.8% and a viability, T/C [17] of 57.8%. It also gave a viability, T/C [18] of 46.5%, a viability, T/C (second compound 0.00949 µM, first compound 3.16 µM) of 40.6% and a viability, T/C (second compound 0.00949 µM, first compound 10 µM) of 2.35%. It also gave a viability, T/C [19] of 49.7%, a viability, T/C [20] of 44.1% and a viability, T/C [21] of 36.5%. It also gave a viability, T/C [22] of 49.3%, a viability, T/C (second compound 0.03 µM, first compound 3.16 µM) of 23.2% and a viability, T/C (second compound 0.03 µM, first compound 10 µM) of 2.84%. The viability, T/C [23] was 32.5%, the viability, T/C [24] was 33.9% and the viability, T/C [25] was 33.8%. The viability, T/C [26] was 37.1%, the viability, T/C (second compound 0.0949 µM, first compound 3.16 µM) was 19.5% and the viability, T/C (second compound 0.0949 µM, first compound 10 µM) was 3.11%. For the same compound, the viability, T/C [27] was 36.9%, the viability, T/C [28] was 34.2% and the viability, T/C [29] was 34.3%. For the same compound, the viability, T/C [30] was 30.9%, the viability, T/C (second compound 0.3 µM, first compound 3.16 µM) was 20.8% and the viability, T/C (second compound 0.3 µM, first compound 10 µM) was 3.29%.

In the case of `O=C(c1ccc(F)c(F)c1Nc1ccc(I)cc1F)N1CC(O)([C@@H]2CCCCN2)C1`, the viability, T/C (compound 0.00316 µM) is reported as 102% [middle of 4 runs], the viability, T/C (compound 0.01 µM) is reported as 105% (2×) and 96.9% and 97.5% and the viability, T/C (compound 0.0316 µM) is reported as 102% [middle of 4 runs].
